{"source": "paper PMC6584114", "about": "“Metabolism of IMM-H004 and Its Pharmacokinetic-Pharmacodynamic Analysis in Cerebral Ischemia/Reperfusion Injured Rats” (Frontiers in Pharmacology, 2019)", "key": {"[1]": {"test_system": "rat liver microsomes (RLMs), UGT", "test": "Kinetics of IMM-H004G formation (glucuronidation) in UDPGA-supplemented rat liver microsomes", "format": "in vitro ADME", "settings": "substrate IMM-H004", "experimental": "(§1) To explore glucuronidation difference of IMM-H004 between humans and rats, the kinetics of IMM-H004G formation in UDPGA-supplemented HLMs and RLMs were determined. The incubation mixtures consisted of HLMs or RLMs (0.025 mg protein/ml), alamethicin (50 μg/mg protein), IMM-H004 (0.5–2,500 μM), and UDPGA (5 mM) in a final volume of 0.2 ml Tris-HCl buffer (50 mM, pH 7.4) containing 5 mM MgCl2. HLM or RLM was preincubated with alamethicin on ice for 15 min. The reaction was incubated at 37°C for 10 min and quenched by adding 200 μL of ice-cold acetonitrile containing IS (100 ng/ml). After vortex-mixing and centrifugation, IMM-H004G in the supernatant was analyzed by LC-MS/MS.\n(§2) The LC-MS/MS system consisted of Shimadzu 30A UPLC and API 4000 triple quadruple mass spectrometer (AB SCIEX, USA). Data acquisition and analysis were accomplished using Analyst 1.5.2 software. The analytes and IS were chromatographed by injection of 1 μL sample. The mobile phases consisted of solvent A (0.5% formic acid in water) and solvent B (0.5% formic acid in methanol) at a flow rate of 0.3 ml/min on an Eclipse Plus C18 column (2.1 mm × 50 mm, 3.5 μm, Agilent, USA), and the operating temperature was 40°C. […] The specific transitions monitored were 305→248 for IMM-H004, 291→234 for M1, 291→248 for M2, 481→305 for IMM-H004G, 385→305 for M4, and 260→183 for IS."}, "[2]": {"test_system": "human liver microsomes (HLMs), UGT", "test": "Kinetics of IMM-H004G formation (glucuronidation) in UDPGA-supplemented human liver microsomes", "format": "in vitro ADME", "settings": "substrate IMM-H004", "experimental": "as §1, §2"}, "[3]": {"test": "Plasma pharmacokinetics in MCAO/R rats after iv IMM-H004 citrate", "format": "in vivo", "settings": "rat, iv IMM-H004 citrate 10 mg/kg", "experimental": "(§3) The plasma pharmacokinetics (PK) and pharmacodynamics (PD) of IMM-H004 and IMM-H004G were investigated in a cerebral ischemia-reperfusion rat model produced by middle cerebral artery occlusion/reperfusion (MCAO/R) after iv administration of IMM-H004. In brief, rats underwent a 1-h MCAO and then received IMM-H004 citrate (10 mg/kg, dissolved in saline to yield a concentration of 2 mg/ml) immediately after reperfusion, an effective dosing time as reported ([Zuo et al., 2015]; [Yang et al., 2017]). For sham surgery, all the arteries were exposed for the surgical period, but the filament was not inserted into the MCA. Blood samples were collected through external jugular vein cannula into heparinized tubes at 0.033, 0.167, 0.5, 1, 2, 4, 6, 8, 12, 24, 36, and 48 h postdose for IMM-H004 and IMM-H004G detection (50 μL of blood at each time point) and at 0.5, 1, 2, 4, 7, and 10 h postdose for malondialdehyde (MDA) detection (80 μL of blood at each time point). Plasma was immediately separated by centrifugation at 900×g for 5 min. Plasma concentrations of IMM-H004 and IMM-H004G in ischemia-reperfusion rats were determined by LC-MS/MS analysis. The PK parameters were calculated by noncompartmental analysis using WinNonlin Version 6.1 (Pharsight, Mountain View, CA). Plasma MDA concentrations in ischemia-reperfusion and sham rats within 24 h were estimated by enzyme-linked immunosorbent assay.\nThe LC-MS/MS system consisted of Shimadzu 30A UPLC and API 4000 triple quadruple mass spectrometer (AB SCIEX, USA). Data acquisition and analysis were accomplished using Analyst 1.5.2 software. The analytes and IS were chromatographed by injection of 1 μL sample. The mobile phases consisted of solvent A (0.5% formic acid in water) and solvent B (0.5% formic acid in methanol) at a flow rate of 0.3 ml/min on an Eclipse Plus C18 column (2.1 mm × 50 mm, 3.5 μm, Agilent, USA), and the operating temperature was 40°C. The elution condition was 10% solvent B for 0.7 min, ascending to 98% B in 2.3 min, holding for 3.0 min and reequilibrating to 10% B within 0.1 min and maintained for 2.4 min (Jiang JW, 2018). The specific transitions monitored were 305→248 for IMM-H004, 291→234 for M1, 291→248 for M2, 481→305 for IMM-H004G, 385→305 for M4, and 260→183 for IS."}, "[4]": {"test_system": "plasma malondialdehyde (MDA)", "test": "Plasma MDA suppression (PD) in MCAO/R rats", "format": "in vivo, rat", "settings": "iv IMM-H004 citrate 10 mg/kg after reperfusion", "experimental": "as §3"}, "[5]": {"test_system": "PC12 cells", "test": "Neuroprotection in oxygen-glucose deprivation injured PC12 cells (MTT cell viability)", "format": "cell-based", "settings": "1 and 10 μM, 24 h, MTT, vs model group", "experimental": "The neuroprotective activity of IMM-H004 and IMM-H004G was evaluated on PC12 cells damaged by oxygen-glucose deprivation (OGD). PC12 cells were purchased from the American Type Culture Collection. Cultures were maintained at 37°C in 5% CO2 in a humidified incubator. For cell viability assay, PC12 cells were incubated in 96-well plates at a density of 5 × 10^4/ml for 24 h. In the sham group, PC12 cells were cultured in Dulbecco’s modified eagle medium supplemented with 5% fetal bovine serum and 5% equine serum (Gibco, USA). In the OGD group, PC12 cells were cultured in glucose-free Earle’s balanced salt solution supplemented with 15 mM Na2S2O4 for 2 h and then incubated with compounds of nerve growth factor (NGF, 10 μM), edaravone (10 μM, 50 μM), IMM-H004 (1 μM, 10 μM), and IMM-H004G (1 μM, 10 μM), respectively. After 24 h of incubation, MTT (5 mg/ml) was added into the cell cultures and incubated for an additional 4 h. Then the supernatant was removed and 100 μL DMSO was added. Absorbance was measured using an Ultramark microplate reader at a wavelength of 562 nm. The cell viability was expressed as a percentage of the absorbance density value of control cultures."}, "[6]": {"design": "method as in Zhang et al., 2017", "settings": "rat plasma and brain, 6 mg/kg; ref Zhang et al., 2017; cited from earlier work"}}}
{"smiles": "COc1cc(O)cc2oc(=O)c(N3CCN(C)CC3)c(C)c12", "note": "[IMM-H004, 7-hydroxy-5-methoxy-4-methyl-3-(4-methylpiperazin-1-yl)-coumarin]", "values": [{"measurement": "K m of IMM-H004G formation (glucuronidation)", "setting": "[1]", "result": 9.5, "unit": "µM"}, {"measurement": "V max of IMM-H004G formation (glucuronidation)", "setting": "[1]", "result": 5.04, "unit": "nmol/min/mg protein"}, {"measurement": "K m of IMM-H004G formation (glucuronidation)", "setting": "[2]", "result": 119.3, "unit": "µM"}, {"measurement": "V max of IMM-H004G formation (glucuronidation)", "setting": "[2]", "result": 3.25, "unit": "nmol/min/mg protein"}, {"measurement": "AUC(0-inf)", "setting": "[3]", "result": 1640, "unit": "ng·h/mL"}, {"measurement": "AUC(0-t)", "setting": "[3]", "result": 1640, "unit": "ng·h/mL"}, {"measurement": "Cmax", "setting": "[3]", "result": 7460, "unit": "ng/mL"}, {"measurement": "MRT last", "setting": "[3]; read-out: MRT(0-t)", "result": "10.8 ± 0.6", "unit": "min"}, {"measurement": "MRT inf", "setting": "[3]; read-out: MRT(0-∞)", "result": "11.4 ± 1.2", "unit": "min"}, {"measurement": "half-life", "setting": "[3]; read-out: t 1/2β (converted)", "result": "25.2 ± 1.8", "unit": "min"}, {"measurement": "Tmax", "setting": "[3]; iv, 10 mg/kg, read-out: T max", "result": 1.8, "unit": "min"}, {"measurement": "duration of plasma MDA lowering after administration", "setting": "[4]", "result": "at least 10 h"}, {"measurement": "effect on plasma MDA level", "setting": "[4]; vs MCAO/R group", "result": "significantly lower the increased MDA level at 2 h"}, {"measurement": "cell viability of OGD-injured PC12 cells", "setting": "[5]", "result": "significant (p < 0.05) preservation of viability"}, {"measurement": "elimination half-life (t 1/2β)", "setting": "[6]", "result": 11.4, "unit": "min"}]}
